Source: patent US20260060961A1, “SUBSTITUTED HETEROCYCLES AS RAS INHIBITORS” (Jazz Pharmaceuticals Ireland Limited, priority 2022, published 2026)

What follows are compounds tested against Recombinant human KRAS protein containing the G12C amino acid substitution (Homo sapiens (Human), UniProt P01116, G12C) (assay: HTRF nucleotide exchange assay, KRAS G12C). Conditions: 180 minute incubation with compound at room temperature; at least two independent replicates; read-out: KRAS G12C HTRF NEA IC50.
Type: biochemical
Protocol: The capacity of compounds to bind KRAS G12C and KRAS wildtype was quantified using a HTRF nucleotide exchange assay. Recombinant human KRAS protein (5 nM; aa1-188 KRAS WT or KRAS containing the G12C amino acid substitution, an N-terminal 6×His-tag and leader sequence), and 2 nM Europium-labeled anti-6×His antibody were mixed in assay buffer (10 mM HEPES pH7.3, 75 mM NaCl, 5 mM MgCl2, 0.05% BSA, 0.0025% NP-40 and 100 mM KF) with various concentrations of compound in a 384-well plate and a volume of 5 μL. After a 180 minute incubation at room temperature, 5 μl of 200 nM EDA-GTP-DY647P1 diluted in assay buffer was added to the plate. Following 30-minute incubation at room temperature, time-resolved fluorescence was measured on a PerkinElmer Envision plate reader. DMSO (0.3%) and unlabeled GDP (1 μM) or equivalent tool compound were used to generate the Max and Min assay signals, respectively. Data was analysed using a four-parameter logistic model to calculate IC50 values, with at least two independent replicates were performed for each compound.

Sequence of Recombinant human KRAS protein containing the G12C amino acid substitution (P01116 other isoform, or with tags, fused parts or gaps G12C): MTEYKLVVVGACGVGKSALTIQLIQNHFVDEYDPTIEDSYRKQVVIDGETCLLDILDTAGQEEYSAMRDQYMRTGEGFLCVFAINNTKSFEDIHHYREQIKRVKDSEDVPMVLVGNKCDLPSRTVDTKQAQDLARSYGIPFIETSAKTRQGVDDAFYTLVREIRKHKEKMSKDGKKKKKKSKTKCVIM

Structure (SMILES)	IC50 [nM]
C=CC(=O)N1CC2(CC(c3nc(-c4ccc(C(=O)NCC(F)(F)F)c(OC)c4)c(-c4c(C)ccc5[nH]ncc45)n3C)C2)C1 [Example 23, 2-methoxy-4-[1-methyl-5-(5-methyl-1H-indazol-4-yl)-2-(2-prop-2-enoyl-2-azaspiro[3.3]heptan-6-yl)95midazole-4-yl]-N-(2,2,2-trifluoroethyl)benzamide]	1000 to 10000
C=CC(=O)N1CC2(CC(c3nc(-c4ccc5c(cnn5C)c4)c(-c4c(C)ccc5[nH]ncc45)n3CC)C2)C1 [Example 24, 1-[6-[1-ethyl-4-(1-methylindazol-5-yl)-5-(5-methyl-1H-indazol-4-yl)imidazol-2-yl]-2-azaspiro[3.3]heptan-2-yl]prop-2-en-1-one]	≤ 1000
C=CC(=O)N1CC2(CC(c3nc(-c4c(C)ccc5[nH]ncc45)c(-c4ccc5c(cnn5C)c4)n3C)C2)C1 [Example 25, 1-[6-[1-methyl-5-(1-methylindazol-5-yl)-4-(5-methyl-1H-indazol-4-yl)imidazol-2-yl]-2-azaspiro[3.3]heptan-2-yl]prop-2-en-1-one]	≥ 10000
C=CC(=O)N1CC2(CC(c3nc(-c4ccc5c(cnn5C)c4)c(-c4cc(O)cc5ccccc45)n3C)C2)C1 [Example 26, 1-[6-[5-(3-hydroxy-1-naphthyl)-1-methyl-4-(1-methylindazol-5-yl)imidazol-2-yl]-2-azaspiro[3.3]heptan-2-yl]prop-2-en-1-one]	≤ 1000
C=CC(=O)N1CC2(CC(c3nc(-c4ccc(N5CCOCC5)cc4)c(-c4cc(O)cc5ccccc45)n3C)C2)C1 [Example 27, 1-[6-[5-(3-hydroxy-1-naphthyl)-1-methyl-4-(4-morpholinophenyl)imidazol-2-yl]-2-azaspiro[3.3]heptan-2-yl]prop-2-en-1-one]	≤ 1000
C=CC(=O)N1CC2(CC(c3nc(-c4ccc5nn(C)cc5c4)c(-c4cc(O)cc5ccccc45)n3C)C2)C1 [Example 28, 1-[6-[5-(3-hydroxy-1-naphthyl)-1-methyl-4-(2-methylindazol-5-yl)imidazol-2-yl]-2-azaspiro[3.3]heptan-2-yl]prop-2-en-1-one]	≤ 1000
C=CC(=O)N1CC2(CC(c3nc(-c4ccc(CN5CCOCC5)cc4)c(-c4cc(O)cc5ccccc45)n3C)C2)C1 [Example 30, 1-[6-[5-(3-hydroxy-1-naphthyl)-1-methyl-4-[4-(morpholinomethyl)phenyl]imidazol-2-yl]-2-azaspiro[3.3]heptan-2-yl]prop-2-en-1-one]	≤ 1000
C=CC(=O)N1CC2(CC(c3nc(-c4ccc(CN5CCN(C)CC5)cc4)c(-c4cc(O)cc5ccccc45)n3C)C2)C1 [Example 31, 1-[6-[5-(3-hydroxy-1-naphthyl)-1-methyl-4-[4-[(4-methylpiperazin-1-yl)methyl]phenyl]imidazol-2-yl]-2-azaspiro[3.3]heptan-2-yl]prop-2-en-1-one]	≤ 1000
C=CC(=O)N1CC2(CC(c3nc(-c4ccc5c(cnn5C)c4)c(-c4cc(O)cc5ccccc45)n3CC)C2)C1 [Example 32, 1-[6-[1-ethyl-5-(3-hydroxy-1-naphthyl)-4-(1-methylindazol-5-yl)imidazol-2-yl]-2-azaspiro[3.3]heptan-2-yl]prop-2-en-1-one]	≤ 1000
C=CC(=O)N1CC2(CC(c3nc(-c4ccc(N5CCOCC5)cc4)c(-c4cc(O)cc5ccccc45)n3CC)C2)C1 [Example 33, 1-[6-[1-ethyl-5-(3-hydroxy-1-naphthyl)-4-(4-morpholinophenyl)imidazol-2-yl]-2-azaspiro[3.3]heptan-2-yl]prop-2-en-1-one]	≤ 1000
C=CC(=O)N1CC2(CC(c3nc(-c4ccc5c(cnn5C)c4)c(-c4cc(O)cc5cccc(Cl)c45)n3C)C2)C1 [Example 35, 1-[6-[5-(8-chloro-3-hydroxy-1-naphthyl)-1-methyl-4-(1-methylindazol-5-yl)imidazol-2-yl]-2-azaspiro[3.3]heptan-2-yl]prop-2-en-1-one]	≤ 1000
C=CC(=O)N1CC2(CC(c3nc(-c4ccc5c(cnn5C)c4)c(-c4cccc5sc(N)c(C#N)c45)n3C)C2)C1 [Example 36, 2-amino-4-[3-methyl-5-(1-methylindazol-5-yl)-2-(2-prop-2-enoyl-2-azaspiro[3.3]heptan-6-yl)imidazol-4-yl]benzothiophene-3-carbonitrile]	1000 to 10000
C=CC(=O)N1CC2(CC(c3nc(-c4ccc(C(=O)NCCN5CCOCC5)cc4)c(-c4cc(O)cc5ccccc45)n3C)C2)C1 [Example 37, 4-[5-(3-hydroxy-1-naphthyl)-1-methyl-2-(2-prop-2-enoyl-2-azaspiro[3.3]heptan-6-yl)imidazol-4-yl]-N-(2-morpholinoethyl)benzamide]	≤ 1000
C=CC(=O)N1CC2(CC(c3nc(-c4ccc5c(cnn5C)c4)c(-c4c(C)c(C)cc5[nH]ncc45)n3C)C2)C1 [Example 38, 1-[6-[5-(5,6-dimethyl-1H-indazol-4-yl)-1-methyl-4-(1-methylindazol-5-yl)imidazol-2-yl]-2-azaspiro[3.3]heptan-2-yl]prop-2-en-1-one]	≤ 1000
C=CC(=O)N1CC2(CC(c3nc(-c4ccc5c(cnn5C)c4)c(-c4cc(O)ccc4C(F)(F)F)n3C)C2)C1 [Example 39, 1-[6-[5-[5-hydroxy-2-(trifluoromethyl)phenyl]-1-methyl-4-(1-methylindazol-5-yl)imidazol-2-yl]-2-azaspiro[3.3]heptan-2-yl]prop-2-en-1-one]	≤ 1000
C=CC(=O)N1CC2(CC(c3nc(-c4ccc5c(cnn5C)c4)c(-c4cc(C#N)cc5[nH]ncc45)n3C)C2)C1 [Example 40, 4-[3-methyl-5-(1-methylindazol-5-yl)-2-(2-prop-2-enoyl-2-azaspiro[3.3]heptan-6-yl)imidazol-4-yl]-1H-indazole-6-carbonitrile]	1000 to 10000
C=CC(=O)N1CC2(CC(c3nc(-c4ccc5c(cnn5C)c4)c(-c4cc(Cl)cc5[nH]ncc45)n3C)C2)C1 [Example 41, 1-[6-[5-(6-chloro-1H-indazol-4-yl)-1-methyl-4-(1-methylindazol-5-yl)imidazol-2-yl]-2-azaspiro[3.3]heptan-2-yl]prop-2-en-1-one]	≤ 1000
